Data set [1] deals with FaDu tumors in nude mice. The class given is in vivo. The method, then: Female 5- to 7-week-old athymic NCr-nu/nu mice were obtained from Taconic Farms. Human FaDu cells, derived from a hypopharyngeal squamous cell carcinoma, were obtained from the American Type Culture Collection. Mice were inoculated s.c. into the right flank with 0.5×10^6 cells in 50 μl PBS, and were randomly segregated into two groups of 10 mice each. After 1 week of engraftment, treatment was administered orally each day at a dose of 40 μg/kg Ribavirin. Tumor size was ascertained by measuring tumor diameter, and statistical significance was ascertained by using a paired t test.

Data set [2] addresses T1, eIF4E W73A (Mus musculus, UniProt P63073, W73A).
T1 construct: made in house
Put plainly: tryptophan fluorescence quenching titration, dorsal surface mutant. Format: binding. Conditions: relative to wild-type eIF4E. The method, then: For fluorescence titrations, mouse eIF4E, which differs from human eIF4E by four nonconserved amino acids, was produced as described. For NMR spectroscopy, mouse eIF4E was expressed as a fusion with the B1 domain of protein G (G4E, kind gift of Gerhard Wagner, Harvard University, Cambridge, Mass.), in BL21 (DE-3) cells by induction with 0.8 mM isopropyl-β-D-thiogalactopyranoside at 18° C. for 20 h in M9 minimal media containing 1 g/l ^15NH4Cl as the sole nitrogen source (Cambridge Isotopes). […] Eluate was dialyzed extensively against 0.1 M NaCl/50 mM Na2PO4 (pH 6.5)/5 mM DTT at 4° C. to produce apo-G4E, as verified by using NMR spectroscopy and fluorescence titrations. […]
(§1) Fluorescence measurements were performed by using a home-built fluorimeter, as described. All titrations were performed in 0.3 M NaCl/10 mM Na2PO4 (pH 7.5)/1 μM zinc in 0.3×0.3 cm^2 fluorescence cuvette (Hellma), by using eIF4E concentration of 2 μM. […] Corrected relative fluorescence intensities were normalized, and fluorescence quenching curves were fit to a heuristic single-site-binding expression: I/I0=Kd^n/(x^n+Kd^n) where x is ligand concentration, Kd is the apparent dissociation constant, and n is the Hill coefficient.

Data set [3] has as its target T2, eIF4E wild-type (Mus musculus, UniProt P63073).
T2 construct: made in house
Put plainly: tryptophan fluorescence quenching titration of nucleoside/nucleotide binding. Conditions: fluorescence spectroscopy, wild-type eIF4E; read-out: apparent dissociation constant (Kd) for eIF4E. The protocol: For fluorescence titrations, mouse eIF4E, which differs from human eIF4E by four nonconserved amino acids, was produced as described. For NMR spectroscopy, mouse eIF4E was expressed as a fusion with the B1 domain of protein G (G4E, kind gift of Gerhard Wagner, Harvard University, Cambridge, Mass.), in BL21 (DE-3) cells by induction with 0.8 mM isopropyl-β-D-thiogalactopyranoside at 18° C. for 20 h in M9 minimal media containing 1 g/l ^15NH4Cl as the sole nitrogen source (Cambridge Isotopes). Cells were lysed at 4° C. by sonication in 0.1 M NaCl/50 mM Tris.HCl (pH 7.5/0.5 mM EDTA/0.5% (vol/vol) Nonidet P-40/10 mM 2-mercaptoethanol/1 mM PMSF. Lysates were cleared by centrifugation at 30,000×g, adsorbed onto m^7G diphosphate-conjugated agarose (Amersham Pharmacia), and extensively washed with 0.1 M NaCl/20 mM Tris.HCl (pH 7.5)/0.5 mM EDTA (Buffer A) at 4° C. Subsequently, beads were washed with 0.1 mM GTP in Buffer A, and G4E was eluted with 5 mM m^7G in Buffer A. Eluate was diluted with 20 mM Na2PO4 (pH 7.5) to reduce NaCl concentration to 50 mM, applied to Sepharose Q anion exchange column (Amersham Pharmacia), and eluted with a linear gradient of NaCl in 20 mM Na2PO4 (pH 7.5) at 4° C. Eluate was dialyzed extensively against 0.1 M NaCl/50 mM Na2PO4 (pH 6.5)/5 mM DTT at 4° C. to produce apo-G4E, as verified by using NMR spectroscopy and fluorescence titrations. Purity and identity of G4E were verified by using SDS/PAGE and electrospray ionization MS. Proteins were concentrated by using Amicon concentrators (Millipore).
as §1

This note sets out measurements from patent publication US10472677B2, “Translational dysfunction based therapeutics” (Translational Therapeutics, Inc., priority 2005, dated 2019).

T1 sequence (P63073 whole entry W73A): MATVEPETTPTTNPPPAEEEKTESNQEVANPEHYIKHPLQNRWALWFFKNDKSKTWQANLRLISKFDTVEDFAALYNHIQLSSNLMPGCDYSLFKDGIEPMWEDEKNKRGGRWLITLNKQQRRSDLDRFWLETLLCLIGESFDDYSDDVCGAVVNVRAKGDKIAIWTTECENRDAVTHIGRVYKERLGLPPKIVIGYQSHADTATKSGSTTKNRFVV
T2 sequence (P63073 whole entry): as the sequence (P63073 whole entry W73A) above, with A73W counted along it

As to `NC(=O)c1ncn([C@@H]2O[C@H](CO)[C@@H](O)[C@H]2O)n1` [Ribavirin, 1-β-D-ribofuranosyl-1,2,4-triazole-3-carboxamide], in data set [1] (40 ug/kg orally daily, after 20 days, P=0.023), the “mean tumor volume, fold less than untreated control” value is 6 fold. Besides, in data set [1] (40 ug/kg orally each day), the mean body concentration result is “ca. 1 uM”. Moreover, the “effect of W73A mutation on Ribavirin affinity” value in data set [2] is listed as “no significant effect”. The Kd in data set [3] was determined as 8.4 µM.
